Columns and labels:
red blood cells (RBCs) [1] = test: Localisation of biotin to RBC surface by attachment of avidinylated beads (DYNABEADS M-280); type: cell-based
Protocol: (§1) The use of aqueous solutions of the construct designated Biotin-S3-S4-S2-chol (III) and the construct designated Biotin-S3-S4-S5-DOPE (IV) in the localisation of biotin (F) to cell surfaces was also compared. Solutions of the two constructs were prepared at substantially equimolar concentrations. The use of the solutions was assessed across a concentration range from 0 to 500 μM (0.5 mM). A 0.5 mM solution of the construct designated Biotin-S3-S4-S2-chol (III) was prepared by dissolving 0.4 mg of the construct in 514 μL of PBS. […] A 0.5 mM stock solution of the construct designated Biotin-S3-S4-S5-DOPE (IV) was prepared by dissolving 2 mg of the construct in 1942 μL of phosphate buffered saline (PBS). Each 0.5 mM solution was warmed to 37° C. for 10 minutes, vortexed and sonicated for 30 seconds to ensure complete dissolution of the construct in the aqueous medium. A dilution series was prepared for each construct to provide a total volume of 100 μL at each of the following concentrations: […]. Equal volumes (40 μL) of packed, washed red blood cells (RBCs) and solutions of constructs at different concentrations were mixed in a glass kimble tube. […]
(§2) Two equal volumes were taken from each tube and centrifuged (300×g for 2 minutes) to provide two equivalent packed cells volumes for further evaluation. One of each pair of equivalent packed cell volumes was evaluated for localisation of the biofunctional moiety biotin to the surface of the RBCs by conjugation with avidin ALEXAFLUOR™. One of each pair of the equivalent packed cell volumes was evaluated for localisation of the biofunctional moiety biotin to the surface of the RBCs by conjugation to avidinylated beads (DYNABEADS™ M-280).
Conjugation with avidinylated beads (DYNABEADS™ M-280) was performed. […] The attachment of beads to cells was scored at 400× and 800× magnification on a compound microscope. An estimate of the number of beads and the presence of cell clusters was recorded for each group and compared with a negative control.

[2] = Dissolution of construct in PBS; type: physicochemical; details: 0.5 mM: 0.4 mg in 514 μL of PBS
Protocol: as §1, with “tube. The tubes were incubated at 37° C. for 20 minutes in a water bath with periodic (3 x) agitation.” for “tube.”

red blood cells (RBCs) [3] = test: Localisation of biotin to RBC surface by conjugation with avidin ALEXAFLUOR (fluorescence microscopy); type: cell-based; parameters: key to fluorescent signal intensity grade: 1 (low); 2 (moderate); 3 (bright); 4 (very bright); details: for staining at higher concentrations: 100 and 500 μM; for fluorescent signal intensity grade: constructs at concentrations of 10 and 25 μM, avidin ALEXAFLUOR
Protocol: The use of aqueous solutions of the construct designated Biotin-S3-S4-S2-chol (III) and the construct designated Biotin-S3-S4-S5-DOPE (IV) in the localisation of biotin (F) to cell surfaces was also compared. Solutions of the two constructs were prepared at substantially equimolar concentrations. The use of the solutions was assessed across a concentration range from 0 to 500 μM (0.5 mM). A 0.5 mM solution of the construct designated Biotin-S3-S4-S2-chol (III) was prepared by dissolving 0.4 mg of the construct in 514 μL of PBS. […] A 0.5 mM stock solution of the construct designated Biotin-S3-S4-S5-DOPE (IV) was prepared by dissolving 2 mg of the construct in 1942 μL of phosphate buffered saline (PBS). Each 0.5 mM solution was warmed to 37° C. for 10 minutes, vortexed and sonicated for 30 seconds to ensure complete dissolution of the construct in the aqueous medium. A dilution series was prepared for each construct to provide a total volume of 100 μL at each of the following concentrations: […]. Equal volumes (40 μL) of packed, washed red blood cells (RBCs) and solutions of constructs at different concentrations were mixed in a glass kimble tube. The tubes were incubated at 37° C. for 20 minutes in a water bath with periodic (3 x) agitation. The incubated cells were washed 3× with PBS before being resuspended in a cell preservative (CELPRESOL™) for storage at 4° C. overnight.
as §2
Conjugation with avidin ALEXAFLUOR™ was evaluated as described in the publication of Oliver et al (2011). An aliquot containing 0.02 mg avidin ALEXAFLUOR™ was mixed with a volume ([…]) of PBS containing BSA to provide a 0.1 mg/mL solution. Equal volumes 20 μL of packed RBCs and the solution of avidin ALEXAFLUOR™ were mixed and incubated at 37° C. for 30 minutes. The cells were then washed 3× with PBS before placing a drop (10 μL) on a glass microscope slide for fluorescent microscopy (WIB filter at 400× magnification). Cells were graded for fluorescence intensity over two micrograph fields of view. Grades determined via the eye piece were correlated with the corresponding photomicrographs (1.9 sec exposure). Grades were assigned according to the following scale: 1 (low), 2 (moderate), 3 (bright) and 4 (very bright). The morphology of the cells was also recorded (“normal” or “poiked”).

[4] = system: O group red blood cells (RBCs); test: Serology of kodecytes with monoclonal preparations; type: cell-based; parameters: scale not given here; details: kodecytes prepared at 200 μg/mL construct
Protocol: The use of aqueous solutions of the construct designated Atri-S1-chol (I), the construct designated Atri-S1-S5-DOPE (V) and the construct designated Atri-S1-S5-S4-S5-DOPE (VI) in the localisation of Atri (F) to cell surfaces was also compared. (The constructs designated Atri-S1-S5-DOPE (V) and […] (VI) (FIG. 11) were prepared according to Bovin et al (2005) and Bovin et al (2009)). Volumes (40 μL) of packed, washed O group red blood cells (RBCs) were resuspended in equal volumes of solutions of each of the three constructs at a concentration of 200 μg/mL in PBS. The resuspended RBCs were incubated at room temperature for 4 hours prior to storage at 4° C. overnight. Serology was performed as described by Bovin et al (2005) using a range of monoclonal preparations and sera.

Structure (SMILES)	attachment of avidinylated beads, comparison of the two constructs (red blood cells (RBCs) [1])	staining at higher concentrations (red blood cells (RBCs) [3])	fluorescent signal intensity grade (red blood cells (RBCs) [3])	Serology score ([4]; Anti-A, B Diagast)	Serology score ([4]; Anti-B (ABO2) Diagast)	Serology score ([4]; Anti-B ALBAclone)	Serology score ([4]; Anti-B Biotec)	Serology score ([4]; Anti-B CSL Epiclone)	Serology score ([4]; Anti-B CSL)	Serology score ([4]; Anti-B Diagast)	Serology score ([4]; Anti-B Diagnostics Scotland)	Serology score ([4]; Anti-B Dominion (Novaclone))	Serology score ([4]; Anti-B Gama)	Serology score ([4]; Anti-B Immucor)	Serology score ([4]; Anti-B Millipore)	Serology score ([4]; Anti-B Ortho-BioClone)	Serology score ([4]; Anti-B Ortho-MoltenClone)	Serology score ([4]; Anti-B Span)	Serology score ([4]; Anti-B ortho)	other results
CC(C)CCC[C@@H](C)[C@H]1CC[C@H]2[C@@H]3CC=C4C[C@@H](OC(=O)NCCCCC(=O)NCC(=O)NCC(=O)N(CC(=O)[O-])CC(=O)NCC(=O)NCC(=O)N(CC(=O)[O-])CC(=O)NCCNC(=O)CN(CC(=O)[O-])C(=O)CNC(=O)CNC(=O)CN(CC(=O)[O-])C(=O)CNC(=O)CNC(=O)CCCC[C@@H]5SC[C@@H]6NC(=O)N[C@@H]65)CC[C@]4(C)[C@H]3CC[C@]12C.[Na+].[Na+].[Na+].[Na+] [Biotin-S3-S4-S2-chol (III)]	comparable results	poor staining	2	–	–	–	–	–	–	–	–	–	–	–	–	–	–	–	–	number of beads attached to each RBC and clustering of RBCs into groups, relative to the other construct (red blood cells (RBCs) [1]; 25 μM construct): slightly greater; dissolution in PBS [2]: readily dissolved to provide a clear solution; homogeneity of modification of cell surface (red blood cells (RBCs) [3]; compared with Biotin-S3-S4-S5-DOPE (IV)): more homogenous modification over the entire cell surface and lesser inter-cell variation; fluorescent signal intensity relative to cells prepared using Biotin-S3-S4-S5-DOPE (IV) (red blood cells (RBCs) [3]; lower concentration ranges (5 to 75 μM)): moderately lower
CCCCCCCC/C=C\CCCCCCCC(=O)OCC(COP(=O)([O-])OCCNC(=O)CCCCC(=O)NCC(=O)NCC(=O)N(CC(=O)[O-])CC(=O)NCC(=O)NCC(=O)N(CC(=O)[O-])CC(=O)NCCNC(=O)CN(CC(=O)[O-])C(=O)CNC(=O)CNC(=O)CN(CC(=O)[O-])C(=O)CNC(=O)CNC(=O)CCCC[C@@H]1SC[C@@H]2NC(=O)N[C@@H]21)OC(=O)CCCCCCC/C=C\CCCCCCCC.[Na+].[Na+].[Na+].[Na+].[Na+] (stereo partly drawn) [Biotin-S3-S4-S5-DOPE (IV), reference compound]	comparable results	poor staining	2	–	–	–	–	–	–	–	–	–	–	–	–	–	–	–	–	–
CC(=O)NC1C(OC2C(O)C(CO)OC(OCCCNC(=O)OC3CCC4(C)C(=CCC5C4CCC4(C)C(C(C)CCCC(C)C)CCC54)C3)C2OC2OC(C)C(O)C(O)C2O)OC(CO)C(O)C1O (stereo not drawn) [I]	–	–	–	0	0	0	0	0	0	0	0	0	0	0	0	0	0	0	0	Serology score ([4]; Anti-A (ABO1) Diagast): 0; Serology score ([4]; Anti-A ALBAclone): 0; Serology score ([4]; Anti-A BRG): 0; Serology score ([4]; Anti-A Biotest): 0; Serology score ([4]; Anti-A CSL Epiclone): 0; Serology score ([4]; Anti-A CSL): 0; Serology score ([4]; Anti-A Diagast): 0; Serology score ([4]; Anti-A Diagnostics Scotland): 0; Serology score ([4]; Anti-A Lorne): 0; Serology score ([4]; Anti-A Ortho-BioClone): 0; Serology score ([4]; Anti-A Span): 0; Serology score ([4]; Anti-A ortho): 0; Serology score ([4]; Anti-A, B CSL): 0; Serology score ([4]; Anti-A, B Diagnostics Scotland): 0; Serology score ([4]; Anti-A/B ALBAclone): 0; Serology score ([4]; Anti-A/B CSL Epiclone): 0; Serology score ([4]; Anti-A/B Dominion (Novaclone)): 0; Serology score ([4]; Diagast Anti-A/B (ABO3)): 0
CCCCCCCCC=CCCCCCCCC(=O)OCC(COP(=O)([O-])OCCNC(=O)CCCCC(=O)NCCCOC1OC(CO)C(O)C(OC2OC(CO)C(O)C(O)C2NC(C)=O)C1OC1OC(C)C(O)C(O)C1O)OC(=O)CCCCCCCC=CCCCCCCCC.[Na+] (stereo not drawn) [V, reference compound]	–	–	–	0	0	0	0	0	0	0	0	0	0	0	0	0	0	0	0	–
CCCCCCCC/C=C\CCCCCCCC(=O)OCC(COP(=O)([O-])OCCNC(=O)CCCCC(=O)NCC(=O)NCC(=O)N(CC(=O)[O-])CC(=O)NCC(=O)NCC(=O)N(CC(=O)[O-])CC(=O)NCCNC(=O)CN(CC(=O)[O-])C(=O)CNC(=O)CNC(=O)CN(CC(=O)[O-])C(=O)CNC(=O)CNC(=O)CCCCC(=O)NCCCO[C@@H]1O[C@H](CO)[C@H](O)[C@H](O[C@H]2O[C@H](CO)[C@H](O)[C@H](O)[C@H]2NC(C)=O)[C@H]1O[C@@H]1O[C@@H](C)[C@@H](O)[C@@H](O)[C@@H]1O)OC(=O)CCCCCCC/C=C\CCCCCCCC.[Na+].[Na+].[Na+].[Na+].[Na+] (stereo partly drawn) [VI, reference compound]	–	–	–	–	0	0	0	0	0	0	0	0	0	0	0	0	0	0	0	–

Reference: patent US20140004499A1, “BIOSURFACE ENGINEERING” (priority 2011, published 2014)
